Measurements from US12594276B2, “Inhibitors of human immunodeficiency virus replication” (ViiV Healthcare UK (No.5) Limited, priority 2024, dated 2026).

What was measured:
[1] = test system: recombinant NL4-3 virus (nef section replaced with Renilla luciferase gene) in MT-2 cells; assay: HIV cell culture assay (antiviral activity, luciferase readout); assay type: cell-based; details: Renilla, NL43, MT-2 cells infected for 4-5 days with recombinant NL4-3 Renilla luciferase virus
How it was run: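 Antiviral EC50 derived from luciferase signal using the exponential median effect equation. Infection of MT-2 cells ran 4-5 days alongside serial dilutions of compound, with virus generated by proviral clone transfection of 293T cells.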

[2] = Compound cytotoxicity, XTT-based colorimetric assay; assay type: cell-based; details: human; uninfected MT2 cells, day 4, XTT; read-out: CC50
How it was run: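 Uninfected MT2 cells were treated with compound under the same protocol as the antiviral assay. Viability was read on day 4 with an XTT colorimetric assay, from which CC50 values were derived.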

`Cc1cc(C2(F)CCC(F)(F)CC2)nc2nc([C@H](Cc3cc(F)cc(F)c3)NC(=O)Cn3nc(C4CC4)c4c3C[C@@H]3C[C@H]43)n(-c3ccc(Cl)c4c(NS(C)(=O)=O)nn(CCN5CCCC5=O)c34)c(=O)c12` (relative stereo) [Example 738, N-[(1S)-1-[(3P)-3-{4-chloro-3-methanesulfonamido-1-[2-(2-oxopyrrolidin-1-yl)ethyl]-1H-indazol-7-yl}-5-methyl-4-oxo-7-(1,4,4-trifluorocyclohexyl)-3H,4H-pyrido[2,3-d]pyrimidin-2-yl]-2-(3,5-difluorophenyl)ethyl]-2-[(2R*,4R*)-9-cyclopropyl-7,8-diazatricyclo[4.3.0.0^2,^4]nona-1(6),8-dien-7-yl]acetamide] gave an EC50 [1] of 0.043 nM and a CC50 at 4 days [2] greater than 20 nM.

Compound `Cc1cc(C2CCC(F)(F)CC2)nc2nc([C@H](Cc3cc(F)cc(F)c3)NC(=O)Cn3nc(C(F)F)c4c3C(F)(F)[C@@H]3C[C@H]43)n(-c3ccc(Cl)c4c(NS(C)(=O)=O)nn(CCN5C[C@@H]6C[C@H]5CC6(F)F)c34)c(=O)c12` (atropisomer, axis not shown; (P)) [Example 310, N-[(1S)-1-[(3P)-3-(4-chloro-1-{2-[(1S,4S)-5,5-difluoro-2-azabicyclo[2.2.1]heptan-2-yl]ethyl}-3-methanesulfonamido-1H-indazol-7-yl)-7-(4,4-difluorocyclohexyl)-5-methyl-4-oxo-3H,4H-pyrido[2,3-d]pyrimidin-2-yl]-2-(3,5-difluorophenyl)ethyl]-2-[(2S,4R)-9-(difluoromethyl)-5,5-difluoro-7,8-diazatricyclo[4.3.0.0^2,^4]nona-1(6),8-dien-7-yl]acetamide] has an EC50 [1] of 0.019 nM and a CC50 at 4 days [2] greater than 50 nM.

`CS(=O)(=O)Nc1nn(CCN2CCCC(F)(F)C2)c2c(-n3c([C@H](Cc4cc(F)cc(F)c4)NC(=O)Cn4nc(C(F)F)c5c4C(F)(F)[C@@H]4C[C@H]54)nc4nc(C5CCC(F)(F)CC5)cc(C(F)F)c4c3=O)ccc(Cl)c12` (atropisomer, axis not shown; (P)) [Example 292, N-[(1S)-1-[(3P)-3-{4-chloro-1-[2-(3,3-difluoropiperidin-1-yl)ethyl]-3-methanesulfonamido-1H-indazol-7-yl}-7-(4,4-difluorocyclohexyl)-5-(difluoromethyl)-4-oxo-3H,4H-pyrido[2,3-d]pyrimidin-2-yl]-2-(3,5-difluorophenyl)ethyl]-2-[(2S,4R)-9-(difluoromethyl)-5,5-difluoro-7,8-diazatricyclo[4.3.0.0^2,^4]nona-1(6),8-dien-7-yl]acetamide] showed an EC50 [1] of 0.016 nM and a CC50 at 4 days [2] greater than 50 nM.

In the case of `C[C@H](CN1C[C@H](F)C[C@H](F)C1)n1nc(NS(C)(=O)=O)c2c(Cl)ccc(-n3c([C@H](Cc4cc(F)cc(F)c4)NC(=O)Cn4nc(C(F)F)c5c4C(F)(F)[C@@H]4C[C@H]54)nc4nc(C5CCC(F)(F)CC5)cc(C5CC5)c4c3=O)c21` (atropisomer, axis not shown; (P)) [Example 716, N-[(1S)-1-[(3P)-3-{4-chloro-1-[(2R)-1-[(3R,5S)-3,5-difluoropiperidin-1-yl]propan-2-yl]-3-methanesulfonamido-1H-indazol-7-yl}-5-cyclopropyl-7-(4,4-difluorocyclohexyl)-4-oxo-3H,4H-pyrido[2,3-d]pyrimidin-2-yl]-2-(3,5-difluorophenyl)ethyl]-2-[(2S,4R)-9-(difluoromethyl)-5,5-difluoro-7,8-diazatricyclo[4.3.0.0^2,^4]nona-1(6),8-dien-7-yl]acetamide], the EC50 [1] is reported as 0.035 nM and the CC50 at 4 days [2] is reported as greater than 20 nM.

Compound `Cc1cc(C2(F)CCC(F)(F)CC2)nc2nc([C@H](Cc3cc(F)cc(F)c3)NC(=O)Cn3nc(C4CC4)c4c3C(F)(F)[C@@H]3C[C@H]43)n(-c3ccc(Cl)c4c(NS(C)(=O)=O)nn(CCN5C[C@H](F)C[C@H](F)C5)c34)c(=O)c12` (atropisomer, axis not shown; (P)) [Example 570, N-[(1S)-1-[(3P)-3-(4-chloro-1-{2-[(3R,5S)-3,5-difluoropiperidin-1-yl]ethyl}-3-methanesulfonamido-1H-indazol-7-yl)-5-methyl-4-oxo-7-(1,4,4-trifluorocyclohexyl)-3H,4H-pyrido[2,3-d]pyrimidin-2-yl]-2-(3,5-difluorophenyl)ethyl]-2-[(2S,4R)-9-cyclopropyl-5,5-difluoro-7,8-diazatricyclo[4.3.0.0^2,^4]nona-1(6),8-dien-7-yl]acetamide] has an EC50 [1] of 0.029 nM and a CC50 at 4 days [2] greater than 20 nM.

`CS(=O)(=O)Nc1nn(CCN2CCC(F)CC2)c2c(-n3c([C@H](Cc4cc(F)cc(F)c4)NC(=O)Cn4nc(C(F)F)c5c4C(F)(F)[C@@H]4C[C@H]54)nc4nc(C5CCC(F)(F)CC5)cc(C(F)F)c4c3=O)ccc(Cl)c12` (atropisomer, axis not shown; (P)) [Example 370, N-[(1S)-1-[(3P)-3-{4-chloro-1-[2-(4-fluoropiperidin-1-yl)ethyl]-3-methanesulfonamido-1H-indazol-7-yl}-7-(4,4-difluorocyclohexyl)-5-(difluoromethyl)-4-oxo-3H,4H-pyrido[2,3-d]pyrimidin-2-yl]-2-(3,5-difluorophenyl)ethyl]-2-[(2S,4R)-9-(difluoromethyl)-5,5-difluoro-7,8-diazatricyclo[4.3.0.0^2,^4]nona-1(6),8-dien-7-yl]acetamide] gave an EC50 [1] of 0.009 nM and a CC50 at 4 days [2] greater than 20 nM.

`Cc1cc(C2CCC(F)(F)CC2)nc2nc([C@H](Cc3cc(F)cc(F)c3)NC(=O)Cn3nc(C(F)F)c4c3C(F)(F)[C@@H]3C[C@H]43)n(-c3ccc(Cl)c4c(NS(C)(=O)=O)nn(CCN5CCCC(F)(F)CC5)c34)c(=O)c12` (atropisomer, axis not shown; (P)) [Example 15, N-[(1S)-1-[(3P)-3-{4-chloro-1-[2-(4,4-difluoroazepan-1-yl)ethyl]-3-methanesulfonamido-1H-indazol-7-yl}-7-(4,4-difluorocyclohexyl)-5-methyl-4-oxo-3H,4H-pyrido[2,3-d]pyrimidin-2-yl]-2-(3,5-difluorophenyl)ethyl]-2-[(2S,4R)-9-(difluoromethyl)-5,5-difluoro-7,8-diazatricyclo[4.3.0.0^2,^4]nona-1(6),8-dien-7-yl]acetamide] gave an EC50 [1] of 0.01 nM and a CC50 at 4 days [2] greater than 50 nM.

Compound `CS(=O)(=O)Nc1nn(CCN2CCOC3(CC3)C2)c2c(-n3c([C@H](Cc4cc(F)cc(F)c4)NC(=O)Cn4nc(C(F)F)c5c4C(F)(F)[C@@H]4C[C@H]54)nc4nc(C5CCC(F)(F)CC5)ccc4c3=O)ccc(Cl)c12` (atropisomer, axis not shown; (P)) [Example 176, N-[(1S)-1-[(3P)-3-[4-chloro-3-methanesulfonamido-1-(2-{4-oxa-7-azaspiro[2.5]octan-7-yl}ethyl)-1H-indazol-7-yl]-7-(4,4-difluorocyclohexyl)-4-oxo-3H,4H-pyrido[2,3-d]pyrimidin-2-yl]-2-(3,5-difluorophenyl)ethyl]-2-[(2S,4R)-9-(difluoromethyl)-5,5-difluoro-7,8-diazatricyclo[4.3.0.0^2,^4]nona-1(6),8-dien-7-yl]acetamide] has an EC50 [1] of 0.018 nM and a CC50 at 4 days [2] greater than 50 nM.

For `CS(=O)(=O)Nc1nn(CCN2CC3C(C2)C(F)(F)C3(F)F)c2c(-n3c([C@H](Cc4cc(F)cc(F)c4)NC(=O)Cn4nc(C(F)F)c5c4C(F)(F)[C@@H]4C[C@H]54)nc4nc(C5CCC(F)(F)CC5)ccc4c3=O)ccc(Cl)c12` (stereo partly drawn) [Example 214, N-[(1S)-1-[(3P)-3-[4-chloro-3-methanesulfonamido-1-(2-{6,6,7,7-tetrafluoro-3-azabicyclo[3.2.0]heptan-3-yl}ethyl)-1H-indazol-7-yl]-7-(4,4-difluorocyclohexyl)-4-oxo-3H,4H-pyrido[2,3-d]pyrimidin-2-yl]-2-(3,5-difluorophenyl)ethyl]-2-[(2S,4R)-9-(difluoromethyl)-5,5-difluoro-7,8-diazatricyclo[4.3.0.0^2,^4]nona-1(6),8-dien-7-yl]acetamide], the EC50 [1] was 0.015 nM and the CC50 at 4 days [2] was greater than 50 nM.

`C[C@@H]1CN(Cc2cc(C3CCC(F)(F)CC3)nc3nc([C@H](Cc4cc(F)cc(F)c4)NC(=O)Cn4nc(C(F)F)c5c4C(F)(F)[C@@H]4C[C@H]54)n(-c4ccc(Cl)c5c(NS(C)(=O)=O)nn(CCN6CCC(F)(F)CC6)c45)c(=O)c23)C[C@H](C)O1` (atropisomer, axis not shown; (P)) [Example 525, N-[(1S)-1-[(3P)-3-{4-chloro-1-[2-(4,4-difluoropiperidin-1-yl)ethyl]-3-methanesulfonamido-1H-indazol-7-yl}-7-(4,4-difluorocyclohexyl)-5-{[(2R,6S)-2,6-dimethylmorpholin-4-yl]methyl}-4-oxo-3H,4H-pyrido[2,3-d]pyrimidin-2-yl]-2-(3,5-difluorophenyl)ethyl]-2-[(2S,4R)-9-(difluoromethyl)-5,5-difluoro-7,8-diazatricyclo[4.3.0.0^2,^4]nona-1(6),8-dien-7-yl]acetamide] gave an EC50 [1] of 0.016 nM and a CC50 at 4 days [2] greater than 20 nM.

Compound `CS(=O)(=O)Nc1nn(CCN2C[C@H]3CC[C@@H](C2)O3)c2c(-n3c([C@H](Cc4cc(F)cc(F)c4)NC(=O)Cn4nc(C5CC5)c5c4C[C@@H]4C[C@H]54)nc4nc(C5CCC(F)(F)CC5)cc(C(F)F)c4c3=O)ccc(Cl)c12` (atropisomer, axis not shown; (P)) [Example 288, N-[(1S)-1-[(3P)-3-(4-chloro-3-methanesulfonamido-1-{2-[(1R,5S)-8-oxa-3-azabicyclo[3.2.1]octan-3-yl]ethyl}-1H-indazol-7-yl)-7-(4,4-difluorocyclohexyl)-5-(difluoromethyl)-4-oxo-3H,4H-pyrido[2,3-d]pyrimidin-2-yl]-2-(3,5-difluorophenyl)ethyl]-2-[(2S,4S)-9-cyclopropyl-7,8-diazatricyclo[4.3.0.0^2,^4]nona-1(6),8-dien-7-yl]acetamide] has an EC50 [1] of 0.008 nM and a CC50 at 4 days [2] greater than 50 nM.
